Experimental data taken from ChEMBL document CHEMBL1130728, “Alkoxide-catalyzed ring-opening of a novel homosaccharin derivative: synthesis of potent, selective P3-lactam thrombin inhibitors containing P4-o-alkoxycarbonylbenzylsulfonamide residues” (Bioorg Med Chem Lett, 1998).

Columns and labels:
Serine protease 1 = Serine protease 1 (Homo sapiens, UniProt P07477); assay: In vitro inhibitory activity was evaluated against human trypsin
[1] = In vitro inhibitory activity was evaluated against FIIa serine protease
Coagulation factor X = Coagulation factor X (Homo sapiens, UniProt P00742); assay: In vitro inhibitory activity was evaluated against Coagulation factor X
Coagulation factor X, sequence (P00742 41-179 limits assumed): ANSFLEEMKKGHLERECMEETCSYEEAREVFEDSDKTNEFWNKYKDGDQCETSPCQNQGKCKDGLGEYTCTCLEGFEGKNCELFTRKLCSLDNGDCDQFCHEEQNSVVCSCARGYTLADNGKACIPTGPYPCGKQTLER
Coagulation factor X, sequence (P00742 235-488 limits assumed): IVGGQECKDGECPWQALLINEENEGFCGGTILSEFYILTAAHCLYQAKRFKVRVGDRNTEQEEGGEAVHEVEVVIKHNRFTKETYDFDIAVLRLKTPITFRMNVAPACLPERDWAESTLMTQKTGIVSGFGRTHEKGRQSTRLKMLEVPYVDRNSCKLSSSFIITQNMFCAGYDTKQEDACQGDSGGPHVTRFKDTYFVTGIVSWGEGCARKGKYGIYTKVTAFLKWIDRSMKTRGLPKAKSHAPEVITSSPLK

Plasminogen [2] = molecular target: T1, Plasminogen (Rattus norvegicus, UniProt Q01177); assay: In vitro inhibitory activity was evaluated against thrombolytic enzyme plasmin
T1 sequence (Q01177 97-581 limits assumed): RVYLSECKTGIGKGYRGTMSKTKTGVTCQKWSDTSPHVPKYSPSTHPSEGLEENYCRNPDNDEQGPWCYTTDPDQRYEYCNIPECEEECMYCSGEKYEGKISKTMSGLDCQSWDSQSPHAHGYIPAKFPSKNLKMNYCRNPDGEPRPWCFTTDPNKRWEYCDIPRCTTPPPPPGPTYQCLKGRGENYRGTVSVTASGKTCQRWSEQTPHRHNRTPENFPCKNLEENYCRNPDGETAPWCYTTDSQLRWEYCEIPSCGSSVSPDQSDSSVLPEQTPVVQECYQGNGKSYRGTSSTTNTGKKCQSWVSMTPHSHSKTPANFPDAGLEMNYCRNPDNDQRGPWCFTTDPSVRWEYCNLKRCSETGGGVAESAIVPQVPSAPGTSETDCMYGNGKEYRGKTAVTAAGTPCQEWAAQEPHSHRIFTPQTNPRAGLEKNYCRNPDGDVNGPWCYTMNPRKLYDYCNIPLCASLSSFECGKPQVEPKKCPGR
T1 sequence (Q01177 582-812 limits assumed): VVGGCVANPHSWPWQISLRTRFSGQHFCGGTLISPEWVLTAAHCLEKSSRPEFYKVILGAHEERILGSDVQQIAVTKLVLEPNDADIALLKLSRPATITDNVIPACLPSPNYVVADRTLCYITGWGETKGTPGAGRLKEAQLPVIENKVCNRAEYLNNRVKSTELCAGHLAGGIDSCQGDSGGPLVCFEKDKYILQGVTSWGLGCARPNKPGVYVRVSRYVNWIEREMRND

Plasminogen [3] = molecular target: T1, Plasminogen; assay: In vitro inhibitory activity was evaluated against thrombolytic enzyme plasmin; Inactive

Serine protease 1, sequence (P07477 whole entry): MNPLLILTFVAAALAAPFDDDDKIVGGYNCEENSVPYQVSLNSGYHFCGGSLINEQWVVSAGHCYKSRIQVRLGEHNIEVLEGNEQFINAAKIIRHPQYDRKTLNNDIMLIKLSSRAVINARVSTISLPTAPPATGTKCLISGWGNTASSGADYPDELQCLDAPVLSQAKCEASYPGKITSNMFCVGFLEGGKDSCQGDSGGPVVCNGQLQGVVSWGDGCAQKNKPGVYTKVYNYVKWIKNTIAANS

With `CCCCCCCCCCOC(=O)c1ccccc1CS(=O)(=O)N[C@H]1CCCCN(CC(=O)N[C@H]2CCCN(C(=N)N)C2O)C1=O` (stereo not given in full) as the compound, how does the IC50 (Serine protease 1) read?
The IC50 was 143 nM.

What about the IC50 [1] of the same compound?
Its IC50 is 7.03 nM.

And the IC50 (Coagulation factor X)?
The IC50 was greater than 2500 nM.

What about the IC50 (Plasminogen [2]) of the same compound?
The IC50 was greater than 2500 nM.

For `N=C(N)N1CCC[C@H](NC(=O)CN2CCCC[C@H](NS(=O)(=O)Cc3ccccc3C(=O)O)C2=O)C1O` (stereo not given in full), which IC50 (Serine protease 1) is on record?
The IC50 was 247 nM.

What about the IC50 [1] of the same compound?
Its IC50 is 39.1 nM.

And the IC50 (Coagulation factor X)?
Its IC50 is greater than 2500 nM.

And the IC50 (Plasminogen [2])?
Its IC50 is greater than 2500 nM.

For `CCCOC(=O)c1ccccc1CS(=O)(=O)N[C@H]1CCCCN(CC(=O)N[C@H]2CCCN(C(=N)N)C2O)C1=O` (stereo not given in full), which IC50 (Serine protease 1) is on record?
The IC50 was 79.8 nM.

What about the IC50 [1] of the same compound?
Its IC50 is 0.96 nM.

And the IC50 (Coagulation factor X)?
The IC50 was 451 nM.

What about the IC50 (Plasminogen [2]) of the same compound?
Its IC50 is greater than 2500 nM.

For `N=C(N)N1CCC[C@H](NC(=O)CN2CCCC[C@H](NS(=O)(=O)Cc3ccccc3C(=O)OCC3CCCCC3)C2=O)C1O` (stereo not given in full), which IC50 (Serine protease 1) is on record?
Its IC50 is 135 nM.

What about the IC50 [1] of the same compound?
The IC50 was 0.56 nM.

And the IC50 (Coagulation factor X)?
The IC50 was 627 nM.

And the IC50 (Plasminogen [2])?
Its IC50 is 1760 nM.

Which results are given for `COC(=O)c1ccccc1CS(=O)(=O)N[C@H]1CCCCN(CC(=O)N[C@H]2CCCN(C(=N)N)C2O)C1=O` (stereo not given in full)?
IC50 (Serine protease 1): 118 nM; IC50 [1]: 0.75 nM; IC50 (Coagulation factor X): 333 nM; IC50 (Plasminogen [2]): > 2500 nM

What does the source list for `N=C(N)N1CCC[C@H](NC(=O)CN2CCCC[C@H](N3C(=O)c4ccccc4CS3(=O)=O)C2=O)C1O` (stereo not given in full)?
IC50 (Serine protease 1): 2500 nM; IC50 [1]: 244 nM; IC50 (Coagulation factor X): > 2500 nM; IC50 (Plasminogen [2]): > 2500 nM

With `CC(C)OC(=O)c1ccccc1CS(=O)(=O)N[C@H]1CCCCN(CC(=O)N[C@H]2CCCN(C(=N)N)C2O)C1=O` (stereo not given in full) as the compound, how does the IC50 (Serine protease 1) read?
Its IC50 is 41.3 nM.

What about the IC50 [1] of the same compound?
Its IC50 is 0.94 nM.

And the IC50 (Coagulation factor X)?
Its IC50 is 369 nM.

And the IC50 (Plasminogen [2])?
The IC50 was greater than 2500 nM.

With `N=C(N)N1CCC[C@H](NC(=O)CN2CCC[C@H](NS(=O)(=O)Cc3ccccc3)C2=O)C1O` (stereo not given in full) as the compound, how does the IC50 (Plasminogen [3]) read?
The IC50 was “Not Active”.

And the IC50 [1]?
The IC50 was 6.2 nM.

And the IC50 (Coagulation factor X)?
The IC50 was greater than 2500 nM.

Which IC50 (Serine protease 1) does the source give for `N=C(N)N1CCC[C@H](NC(=O)CN2CCCC[C@H](NS(=O)(=O)Cc3ccccc3)C2=O)C1O` (stereo not given in full) here?
The IC50 was 101 nM.

And the IC50 [1]?
Its IC50 is 0.7 nM.

And the IC50 (Coagulation factor X)?
Its IC50 is 39.6 nM.

And the IC50 (Plasminogen [2])?
The IC50 was greater than 2500 nM.
